Test results published in US11548871B2, “Triazole carbamate pyridyl sulfonamides as LPA receptor antagonists and uses thereof” (Gilead Sciences, Inc., priority 2019, dated 2023).

target: human LPAR1 (Homo sapiens, UniProt Q92633); experiment: LPAR1 intracellular calcium mobilization assay (antagonist mode)
Sequence (Q92633 whole entry): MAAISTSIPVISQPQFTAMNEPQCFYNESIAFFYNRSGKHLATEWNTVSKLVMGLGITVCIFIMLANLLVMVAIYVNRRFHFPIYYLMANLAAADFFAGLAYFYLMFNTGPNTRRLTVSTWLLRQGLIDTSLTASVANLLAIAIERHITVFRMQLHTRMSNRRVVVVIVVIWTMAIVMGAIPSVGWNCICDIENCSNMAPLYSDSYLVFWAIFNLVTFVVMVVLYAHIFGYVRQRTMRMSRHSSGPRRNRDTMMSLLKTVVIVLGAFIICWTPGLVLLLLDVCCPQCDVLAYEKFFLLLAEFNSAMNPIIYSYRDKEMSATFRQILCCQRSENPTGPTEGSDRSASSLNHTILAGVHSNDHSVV

EC50 | SMILES
28.4 nM | C[C@@H](OC(=O)Nc1c(-c2ccc(NS(C)(=O)=O)cn2)nnn1C)c1cccc(F)c1 [Compound 95, (R)-1-(3-fluorophenyl)ethyl(1-methyl-4-(5-(methylsulfonamido)pyridin-2-yl)-1H-1,2,3-triazol-5-yl)carbamate]
493 nM | COCc1nc(-c2nnn(C)c2NC(=O)O[C@H](C)c2cccnc2Cl)ccc1NS(C)(=O)=O [Compound 145, (R)-1-(2-chloropyridin-3-yl)ethyl (4-(6-(methoxymethyl)-5-(methylsulfonamido)pyridin-2-yl)-1-methyl-1H-1,2,3-triazol-5-yl)carbamate]
588 nM | CCc1ncccc1[C@@H](C)OC(=O)Nc1c(-c2ccc(NS(C)(=O)=O)c(C)n2)nnn1C [Compound 151, (R)-1-(2-ethylpyridin-3-yl)ethyl (1-methyl-4-(6-methyl-5-(methylsulfonamido)pyridin-2-yl)-1H-1,2,3-triazol-5-yl)carbamate]
2980 nM | Cc1nc(-c2nnn(C)c2NC(=O)O[C@H](C)c2ccnn2C)ccc1NS(C)(=O)=O [Compound 135, (R)-1-(1-methyl-1H-pyrazol-5-yl)ethyl (1-methyl-4-(6-methyl-5-(methylsulfonamido)pyridin-2-yl)-1H-1,2,3-triazol-5-yl)carbamate]
48.5 nM | Cc1nc(-c2nnn(C)c2NC(=O)O[C@@H](c2ccccc2)C(F)F)ccc1NS(C)(=O)=O [Compound 57, (S)-2,2-difluoro-1-phenylethyl (1-methyl-4-(6-methyl-5-(methylsulfonamido)pyridin-2-yl)-1H-1,2,3-triazol-5-yl)carbamate]
41.3 nM | Cc1nc(-c2nnn(C)c2NC(=O)O[C@H](C)c2ccccc2F)ccc1NS(C)(=O)=O [Compound 93, (R)-1-(2-fluorophenyl)ethyl(1-methyl-4-(6-methyl-5-(methylsulfonamido)pyridin-2-yl)-1H-1,2,3-triazol-5-yl)carbamate]
675 nM | Cc1nc(-c2nnn(C)c2NC(=O)OC(C)c2ncccc2Cl)ccc1NS(C)(=O)=O (centres unmarked) [Compound 131, 1-(3-chloropyridin-2-yl)ethyl (1-methyl-4-(6-methyl-5-(methylsulfonamido)pyridin-2-yl)-1H-1,2,3-triazol-5-yl)carbamate]
271 nM | Cc1nc(-c2nnn(C)c2NC(=O)OC(C)c2cnc(F)cc2Cl)ccc1NS(C)(=O)=O (centres unmarked) [Compound 129, 1-(4-chloro-6-fluoropyridin-3-yl)ethyl (1-methyl-4-(6-methyl-5-(methylsulfonamido)pyridin-2-yl)-1H-1,2,3-triazol-5-yl)carbamate]
1590 nM | Cc1nc(-c2nnn(C)c2NC(=O)O[C@H](C)c2cncnc2C)ccc1NS(C)(=O)=O [Compound 70, (R)-1-(4-methylpyrimidin-5-yl)ethyl (1-methyl-4-(6-methyl-5-(methylsulfonamido)pyridin-2-yl)-1H-1,2,3-triazol-5-yl)carbamate]
50 nM | Cc1nc(-c2nnn(C)c2NC(=O)O[C@H](CF)c2ccccc2F)ccc1NS(C)(=O)=O [Compound 44, (S)-2-fluoro-1-(2-fluorophenyl)ethyl (1-methyl-4-(6-methyl-5-(methylsulfonamido)pyridin-2-yl)-1H-1,2,3-triazol-5-yl)carbamate]
155 nM | Cc1nc(-c2nnn(C)c2NC(=O)OC(C)c2ccncc2Cl)ccc1NS(C)(=O)=O (centres unmarked) [Compound 75, 1-(3-chloropyridin-4-yl)ethyl (1-methyl-4-(6-methyl-5-(methylsulfonamido)pyridin-2-yl)-1H-1,2,3-triazol-5-yl)carbamate]
44.6 nM | Cc1nc(-c2nnn(CC#N)c2NC(=O)O[C@H](C)c2ccccc2)ccc1NS(C)(=O)=O [Compound 99, (R)-1-phenylethyl(1-(cyanomethyl)-4-(6-methyl-5-(methylsulfonamido)pyridin-2-yl)-1H-1,2,3-triazol-5-yl)carbamate]
84.7 nM | CNc1nc(-c2nnn(C)c2NC(=O)O[C@H](CF)c2ccccc2)ccc1NS(C)(=O)=O [Compound 155, (S)-2-fluoro-1-phenylethyl (1-methyl-4-(6-(methylamino)-5-(methylsulfonamido)pyridin-2-yl)-1H-1,2,3-triazol-5-yl)carbamate]
267 nM | CC(C)NS(=O)(=O)Nc1ccc(-c2nnn(C)c2NC(=O)O[C@H](C)c2cccnc2Cl)nc1 [Compound 160, (R)-1-(2-chloropyridin-3-yl)ethyl (4-(5-((N-isopropylsulfamoyl)amino)pyridin-2-yl)-1-methyl-1H-1,2,3-triazol-5-yl)carbamate]
86.1 nM | Cc1nc(-c2nnn(C)c2NC(=O)O[C@H](C)c2cc(F)ncc2Cl)ccc1NS(C)(=O)=O [Compound 123, (R)-1-(5-chloro-2-fluoropyridin-4-yl)ethyl (1-methyl-4-(6-methyl-5-(methylsulfonamido)pyridin-2-yl)-1H-1,2,3-triazol-5-yl)carbamate]
23.4 nM | Cc1nc(-c2nnn(C)c2NC(=O)O[C@H](C)c2cc(F)ccc2F)ccc1NS(C)(=O)=O [Compound 63, (R)-1-(2,5-difluorophenyl)ethyl (1-methyl-4-(6-methyl-5-(methylsulfonamido)pyridin-2-yl)-1H-1,2,3-triazol-5-yl)carbamate]

EC50 | SMILES
50.2 nM | C[C@@H](OC(=O)Nc1c(-c2ccc(NS(C)(=O)=O)cn2)nnn1C)c1csnc1Cl [Compound 119, (R)-1-(3-chloroisothiazol-4-yl)ethyl (1-methyl-4-(5-(methylsulfonamido)pyridin-2-yl)-1H-1,2,3-triazol-5-yl)carbamate]
8.2 nM | Cn1nnc(-c2ccc(NS(C)(=O)=O)cn2)c1NC(=O)O[C@@H](c1ccccc1)C(F)F [Compound 15, (S)-2,2-difluoro-1-phenylethyl (1-methyl-4-(5-(methylsulfonamido)pyridin-2-yl)-1H-1,2,3-triazol-5-yl)carbamate]
193 nM | Cc1nc(-c2nnn(C)c2NC(=O)OC(C)c2cc(Cl)cnc2Cl)ccc1NS(C)(=O)=O (centres unmarked) [Compound 84, 1-(2,5-dichloropyridin-3-yl)ethyl (1-methyl-4-(6-methyl-5-(methylsulfonamido)pyridin-2-yl)-1H-1,2,3-triazol-5-yl)carbamate]
18.1 nM | Cc1nc(-c2nnn(CC#N)c2NC(=O)O[C@H](C)c2ccccc2Cl)ccc1NS(C)(=O)=O [Compound 96, (R)-1-(2-chlorophenyl)ethyl(1-(cyanomethyl)-4-(6-methyl-5-(methylsulfonamido)pyridin-2-yl)-1H-1,2,3-triazol-5-yl)carbamate]
55.8 nM | Cc1nc(-c2nnn(C)c2NC(=O)O[C@H](CF)c2cc(F)ccc2F)ccc1NS(C)(=O)=O [Compound 45, (S)-1-(2,5-difluorophenyl)-2-fluoroethyl (1-methyl-4-(6-methyl-5-(methylsulfonamido)pyridin-2-yl)-1H-1,2,3-triazol-5-yl)carbamate]
434 nM | Cc1nc(-c2nnn(C)c2NC(=O)O[C@H](C)c2cccc(F)c2)ccc1NS(=O)(=O)C1CCC1 [Compound 104, (R)-1-(3-fluoro-phenyl)ethyl(4-(5-(cyclobutane-sulfonamido)-6-methylpyridin-2-yl)-1-methyl-1H-1,2,3-triazol-5-yl)carbamate]
30 nM | Cc1nc(-c2nnn(C)c2NC(=O)O[C@H](C)c2cc(Cl)ccc2Cl)ccc1NS(C)(=O)=O [Compound 61, (R)-1-(2,5-dichlorophenyl)ethyl (1-methyl-4-(6-methyl-5-(methylsulfonamido)pyridin-2-yl)-1H-1,2,3-triazol-5-yl)carbamate]
265 nM | Cc1nc(-c2nnn(C)c2NC(=O)O[C@H](C)c2cccnc2F)ccc1NS(C)(=O)=O [Compound 128, (R)-1-(2-fluoropyridin-3-yl)ethyl (1-methyl-4-(6-methyl-5-(methylsulfonamido)pyridin-2-yl)-1H-1,2,3-triazol-5-yl)carbamate]
79.2 nM | Cc1nc(-c2nnn(C)c2NC(=O)OC(C)c2ccnc(F)c2Cl)ccc1NS(C)(=O)=O (centres unmarked) [Compound 77, 1-(3-chloro-2-fluoropyridin-4-yl)ethyl (1-methyl-4-(6-methyl-5-(methylsulfonamido)pyridin-2-yl)-1H-1,2,3-triazol-5-yl)carbamate]
66.3 nM | C[C@@H](OC(=O)Nc1c(-c2ccc(NS(C)(=O)=O)cn2)nnn1C)c1cccc(Cl)c1 [Compound 14, (R)-1-(3-chlorophenyl)ethyl (1-methyl-4-(5-(methylsulfonamido)pyridin-2-yl)-1H-1,2,3-triazol-5-yl)carbamate]
1830 nM | Cc1nc(-c2nnn(C)c2NC(=O)OC(C)c2cc(Cl)nnc2Cl)ccc1NS(C)(=O)=O (centres unmarked) [Compound 134, 1-(3,6-dichloropyridazin-4-yl)ethyl (1-methyl-4-(6-methyl-5-(methylsulfonamido)pyridin-2-yl)-1H-1,2,3-triazol-5-yl)carbamate]
162 nM | Cc1nc(-c2nnn(C)c2NC(=O)OC(C2CCCCC2)C(F)(F)F)ccc1NS(C)(=O)=O (centres unmarked) [Compound 48, 1-cyclohexyl-2,2,2-trifluoroethyl (1-methyl-4-(6-methyl-5-(methylsulfonamido)pyridin-2-yl)-1H-1,2,3-triazol-5-yl)carbamate]
235 nM | COCc1nc(-c2nnn(C)c2NC(=O)O[C@H](C)c2cc(F)cnc2Cl)ccc1NS(C)(=O)=O [Compound 144, (R)-1-(2-Chloro-5-fluoropyridin-3-yl)ethyl (4-(6-(methoxymethyl)-5-(methylsulfonamido)pyridin-2-yl)-1-methyl-1H-1,2,3-triazol-5-yl)carbamate]
162 nM | Cc1nc(-c2nnn(C)c2NC(=O)O[C@H](CF)c2ccccc2)c(F)cc1NS(C)(=O)=O [Compound 156, (S)-2-fluoro-1-phenylethyl (4-(3-fluoro-6-methyl-5-(methylsulfonamido)pyridin-2-yl)-1-methyl-1H-1,2,3-triazol-5-yl)carbamate]
172 nM | Cc1cccc(COC(=O)Nc2c(-c3ccc(NS(C)(=O)=O)c(C)n3)nnn2C)c1 [Compound 37, 3-methylbenzyl (1-methyl-4-(6-methyl-5-(methylsulfonamido)pyridin-2-yl)-1H-1,2,3-triazol-5-yl)carbamate]
64.9 nM | CSc1ccccc1[C@@H](C)OC(=O)Nc1c(-c2ccc(NS(C)(=O)=O)c(C)n2)nnn1C [Compound 55, (R)-1-(2-(methylthio)phenyl)ethyl (1-methyl-4-(6-methyl-5-(methylsulfonamido)pyridin-2-yl)-1H-1,2,3-triazol-5-yl)carbamate]
